From US10836745B2, “Cocrystal, production method thereof, and medicament containing cocrystal” (Takeda Pharmaceutical Company Limited, priority 2015, dated 2020)
≈ marks a conversion by molar mass, not a printed value. Like-named read-outs stand apart in the source and are kept apart here.

What was measured:
[1] = Measurement of solubility (shake-flask method); assay type: physicochemical; settings: thermodynamic from solid, 37° C., shaken 2 hr
Method: According to the method described in “Thermodynamic Solubility Measurement by the Shake-Flask Method” on page 1229 of Nakashima S., Chem. Pharm. Bull., 61(12) 1228-1238 (2013), the solubility of the crystals and cocrystals of compound (A) was measured. To be specific, the first fluid (JP1), the second fluid (JP2) and the second fluid containing 20 mM sodium glycochenodeoxycholate (JP2/GCDC) of the Japanese Pharmacopoeia disintegration test were added at 400 μL each to the crystals or cocrystals (0.4 mg) of compound (A), and the mixture was heated to 37° C. under air atmosphere, and shaken by a vortex mixer for 2 hr at 500 rpm. After shaking, the mixture was passed through a 0.45 μm PVDF filter, and the filtrate was analyzed by HPLC. From a chromatogram comparison with the standard solution (0.1 mg/mL), the solubility of the crystals of the single compound and the cocrystals was calculated.

[2] = Measurement of dissolution rate (intrinsic dissolution test); assay type: physicochemical; settings: 7 mm disc, 200 rpm, second fluid containing cholic acid, 37° C.
Method: According to the method described in “2.6. Intrinsic dissolution test” on page 231 of Tsutsumi S., Int. J. Pharm., 421 (2011) 230-236, the dissolution rate of the crystals and cocrystals of compound (A) was measured. To be specific, the crystals or cocrystals of compound (A) (20 mg) was pressurized by a hand press tableting machine at 20 MPa for 10 min to give a 7 mm diameter disc. The prepared disc was adhered to the inside of a rotating shaft of the United States Pharmacopeia dissolution test 1 (basket), and inserted, while rotating at 200 rpm, in the second fluid (250 mL) of the Japanese Pharmacopoeia disintegration test containing cholic acid heated to 37° C. The second fluid containing the crystals or cocrystals was collected by 0.5 mL at 1 min intervals, and analyzed by HPLC. From a chromatogram comparison with the standard solution (0.05 mg/mL), the concentration of the crystals or the cocrystals was calculated, and the dissolution rate thereof was calculated.

[3] = physchem

| solubility at 2 h ([1]; pH 1.2, simulated gastric fluid, first fluid (JP1) of Japanese Pharmacopoeia disintegration test, read-out: solubility JP1) [µg/mL] | solubility at 2 h ([1]; pH 6.8, aqueous buffer, second fluid (JP2) of Japanese Pharmacopoeia disintegration test, read-out: solubility JP2) [µg/mL] | solubility at 2 h ([1]; pH 6.8, fassgf or other biorelevant, second fluid containing 20 mM sodium glycochenodeoxycholate, read-out: solubility JP2/GCDC) [µg/mL] | dissolution rate [2] [μg/mm^2/min] | pKa [3] | SMILES |
| --- | --- | --- | --- | --- | --- |
| 1.5 (≈ 4.27 µM) | 1.5 (≈ 4.27 µM) | 35.6 (≈ 101 µM) | 0.2 | – | C=CC(=O)N1CC[C@H](Oc2nc(-c3n[nH]c(=O)[nH]3)cc3ccccc23)C1 [compound (A), (S)-3-(1-((1-acryloylpyrrolidin-3-yl)oxy)isoquinolin-3-yl)-1H-1,2,4-triazol-5(4H)-one] |
| – | – | – | – | 3.23 | O=C(O)c1cc(O)ccc1O [gentisic acid] |
